One series deals with T1, progesterone receptor (Sus scrofa, UniProt D0EWS6).
T1 construct: from tissue; host or cells: hog uterus, cytosol (100,000×g supernatant)
T1 sequence (D0EWS6 1-934): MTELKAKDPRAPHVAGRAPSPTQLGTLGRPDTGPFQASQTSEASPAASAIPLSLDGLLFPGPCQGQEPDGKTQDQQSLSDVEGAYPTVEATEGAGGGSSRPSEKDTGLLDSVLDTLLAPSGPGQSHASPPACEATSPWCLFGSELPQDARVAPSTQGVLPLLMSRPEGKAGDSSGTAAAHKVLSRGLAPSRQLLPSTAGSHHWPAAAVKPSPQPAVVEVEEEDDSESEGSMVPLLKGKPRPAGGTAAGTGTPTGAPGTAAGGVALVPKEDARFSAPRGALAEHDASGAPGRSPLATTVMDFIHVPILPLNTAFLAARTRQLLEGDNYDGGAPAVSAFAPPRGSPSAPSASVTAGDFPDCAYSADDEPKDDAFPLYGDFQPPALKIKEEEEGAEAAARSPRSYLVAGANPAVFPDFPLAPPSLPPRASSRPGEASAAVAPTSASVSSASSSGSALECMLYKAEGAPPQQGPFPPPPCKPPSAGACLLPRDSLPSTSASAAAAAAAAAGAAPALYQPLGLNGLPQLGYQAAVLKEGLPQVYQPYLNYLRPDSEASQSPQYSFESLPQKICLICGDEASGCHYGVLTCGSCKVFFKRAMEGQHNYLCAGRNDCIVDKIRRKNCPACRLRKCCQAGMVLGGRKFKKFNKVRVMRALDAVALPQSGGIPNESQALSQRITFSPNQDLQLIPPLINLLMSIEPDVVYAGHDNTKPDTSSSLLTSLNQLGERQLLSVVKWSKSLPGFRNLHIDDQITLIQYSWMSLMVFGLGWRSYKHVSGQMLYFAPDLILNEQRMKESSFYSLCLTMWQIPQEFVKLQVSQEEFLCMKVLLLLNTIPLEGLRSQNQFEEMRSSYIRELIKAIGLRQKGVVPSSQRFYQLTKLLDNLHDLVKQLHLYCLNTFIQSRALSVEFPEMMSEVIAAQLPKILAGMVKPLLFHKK
The series can be described thus: progesterone receptor binding inhibition ([^3 H]-progesterone, cytosol from uteri of hogs). Conditions: [^3 H]-progesterone ligand, hog uterus cytosol, 60 min at 4° C.; read-out: Inhibitory activity (IC50) against progesterone receptor binding. The method, then:
That is, uteri taken from hogs in 5 mM phosphate buffer were disrupted using Polytron homogenizer, and the resulting solution was centrifuged (100,000×g, 30 min) to separate the supernatant, thereby preparing a cytosol containing progesterone receptor. […] Then, 100 μl of a 0.5% activated carbon solution was added to the reaction solution, and the mixture was allowed to stand for 10 min and then centrifuged (2,000×g, 10 min). The radioactivity of the supernatant was measured with a liquid scintillation counter.
Separately, the radioactivity was measured in the same manner as described above, except that no test drug was added. Further, the radioactivity was measured in the same manner as described above, except that 10 μl of Medroxyprogesterone Acetate (MPA) (10 μg/ml) was added instead of the test drug. The radioactivity with no test drug added was defined as the amount of total binding of [^3 H]-progesterone to the cytosol, and the radioactivity with MPA added was defined as the amount of non-specific binding. The inhibition ratio was calculated from these measured values by the following equation to determine the binding inhibitory activity (IC50). [formula]

A short description of a further series: Acute Toxicity. The series is classed as in vivo, SD male rat. The method, then:
The compound of Example A4 dissolved in 0.2% of methylcellulose solution was hypodermically administered to SD male rat (16 weeks old) at a dose of 60 mg/kg.

Structures are written as SMILES.

For the compound `CCC(=O)O[C@H]1[C@@H](OC(=O)CC)C=C2C=C3OC(=O)C(C)=C3C[C@]2(C)[C@H]1C` [Example A4, (4aR,5R,6R,7S)-6,7-Dipropionyloxy-4a,5,6,7-tetrahydro-3,4a,5-trimethylnaphtho[2,3-b]furan-2(4H)-one], the IC50 at progesterone receptor was found to be 32 nM. In addition, the survival entry in “Acute Toxicity” (SD male rat (16 weeks old), hypodermic, 60 mg/kg in 0.2% methylcellulose) is reported as “all the animals survived”. Besides, the toxicity result in “Acute Toxicity” (rat, in vivo, 60 mg/kg) is given as “no significant toxicity”.

As usually defined, the IC50 is the concentration that gives 50% inhibition.

The record behind these values is US6255339A, “Tetrahydronaphthofuranone derivatives and process for producing the same” (Meiji Seika Kaisha, Ltd., priority 1996, dated 2001).
